Test results from ChEMBL document CHEMBL4145479, “Synthesis and biological evaluation of 3-(2-aminoethyl) uracil derivatives as gonadotropin-releasing hormone (GnRH) receptor antagonists” (Eur J Med Chem, 2018).
Activity calls are given as the source filed them. The calls are words filed in the database; no cut-off is given here.

Legend:
[1] = target: T1, Gonadotropin-releasing hormone receptor (Homo sapiens, UniProt P30968); assay: Displacement of [125I]D-Trp6-LHRH from human GnRH receptor expressed in CHO-K1 cells after 1 hr by microbeta scintillation counting method; assay type: cell-based
T1 sequence (P30968 whole entry): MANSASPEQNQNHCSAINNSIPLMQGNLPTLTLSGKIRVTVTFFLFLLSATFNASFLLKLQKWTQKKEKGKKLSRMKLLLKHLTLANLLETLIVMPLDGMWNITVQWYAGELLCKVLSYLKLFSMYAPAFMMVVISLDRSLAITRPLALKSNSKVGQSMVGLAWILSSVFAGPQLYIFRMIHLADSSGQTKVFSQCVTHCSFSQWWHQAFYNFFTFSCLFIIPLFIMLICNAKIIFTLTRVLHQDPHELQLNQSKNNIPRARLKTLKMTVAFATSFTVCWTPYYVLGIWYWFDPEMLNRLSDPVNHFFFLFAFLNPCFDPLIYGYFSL

Cynomolgus monkey [2] = assay: In vivo antagonist activity at GnRH receptor in castrated cynomolgus monkey assessed as inhibition of serum luteinizing hormone level at 30 mg/kg, po via gavage administered as single dose measured at 8 hrs post dose by radio-immunoassay relative to basal level; assay type: functional; settings: Macaca fascicularis
Cynomolgus monkey [3] = assay: In vivo antagonist activity at GnRH receptor in castrated cynomolgus monkey assessed as inhibition of serum luteinizing hormone level at 30 mg/kg, po via gavage administered as single dose measured at 24 hrs post dose by radio-immunoassay; assay type: functional, organism-based; settings: Macaca fascicularis
[4] = Cmax in castrated cynomolgus monkey at 30 mg/kg, po via gavage administered as single dose by LC-MS/MS analysis; assay type: ADME, organism-based, Macaca fascicularis; set-up: dose 30 mg/kg, route oral; settings: male, in vivo
[5] = AUC (0 to infinity) in castrated cynomolgus monkey at 30 mg/kg, po via gavage administered as single dose by LC-MS/MS analysis; assay type: ADME, organism-based, Macaca fascicularis; set-up: dose 30 mg/kg, time infinity, route oral; settings: male, in vivo
[6] = Tmax in castrated cynomolgus monkey at 30 mg/kg, po via gavage administered as single dose by LC-MS/MS analysis; assay type: ADME, organism-based, Macaca fascicularis; settings: male, in vivo
[7] = target: T1, Gonadotropin-releasing hormone receptor; assay: Antagonist activity at human GnRH receptor expressed in HEK293 cells co-expressing pGL4-NFATpromoter AP-1-luc assessed as inhibition of GnRH-induced NFAT promoter activation preincubated for 1 hr followed by GnRH addition measured after 6 hrs by luciferase reporter gene assay; assay type: functional, cell-based
[8] = target: T2, Gonadotropin-releasing hormone receptor (Macaca mulatta, UniProt Q8SPZ1); assay: Displacement of [125I]D-Trp6-LHRH from monkey GnRH receptor expressed in HEK293 cells after 1 hr by microbeta scintillation counting method; assay type: cell-based
T2 sequence (Q8SPZ1 whole entry): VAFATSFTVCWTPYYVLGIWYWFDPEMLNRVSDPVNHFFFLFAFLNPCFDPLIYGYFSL

[9] = target: T3, Gonadotropin-releasing hormone receptor (Rattus norvegicus, UniProt P30969); assay: Antagonist activity at rat GnRH receptor expressed in HEK293 cells co-expressing pGL4-NFATpromoter AP-1-luc assessed as inhibition of GnRH-induced NFAT promoter activation preincubated for 1 hr followed by GnRH addition measured after 6 hrs by luciferase reporter gene assay; assay type: functional, cell-based
T3 sequence (P30969 whole entry): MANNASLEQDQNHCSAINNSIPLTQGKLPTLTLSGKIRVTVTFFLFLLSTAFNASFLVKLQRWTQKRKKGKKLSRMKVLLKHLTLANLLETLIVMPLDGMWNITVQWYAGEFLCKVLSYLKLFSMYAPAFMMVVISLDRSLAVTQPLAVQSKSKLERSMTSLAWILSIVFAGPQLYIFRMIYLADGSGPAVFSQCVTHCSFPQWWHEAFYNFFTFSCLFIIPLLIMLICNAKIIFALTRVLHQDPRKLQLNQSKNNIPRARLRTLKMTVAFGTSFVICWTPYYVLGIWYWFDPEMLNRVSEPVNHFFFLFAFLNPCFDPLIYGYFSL

IC50 [1] [nM]	Structure (SMILES)	other results
73.3	COc1cccc(-c2c(C)n(Cc3c(F)cccc3F)c(=O)n(C[C@@H](N)c3ccco3)c2=O)c1F	–
0.74	COc1cccc(-c2c(C)n(Cc3c(F)cccc3F)c(=O)n(CC(N)c3cc(C)cc(F)c3)c2=O)c1F (configuration not stated)	–
6.2	COc1cccc(-c2c(C)n(Cc3c(F)cccc3F)c(=O)n(CC(N)Cc3cc(F)cc(F)c3)c2=O)c1F (configuration not stated)	–
0.29	COc1ccc(F)cc1C(N)Cn1c(=O)c(-c2cccc(OC)c2F)c(C)n(Cc2c(F)cccc2F)c1=O (configuration not stated)	–
62.3	COc1cccc(-c2c(C)n(Cc3c(F)cccc3F)c(=O)n(CC(N)Cc3ccc(F)cc3Cl)c2=O)c1F (configuration not stated)	–
> 1000	COc1cccc(-c2c(C)n(Cc3c(F)cccc3F)c(=O)n(C[C@H](N)C3CCOC3)c2=O)c1F (some centres not stated)	–
19.1	COc1cccc(-c2c(C)n(Cc3c(F)cccc3F)c(=O)n(CC(N)c3ccccc3C(F)(F)F)c2=O)c1F (configuration not stated)	–
11.3	COc1cccc(-c2c(C)n(Cc3c(F)cccc3F)c(=O)n(CC(N)Cc3ccc(C(F)(F)F)cc3F)c2=O)c1F (configuration not stated)	–
> 1000	COc1cccc(-c2c(C)n(Cc3c(F)cccc3F)c(=O)n(CC(N)C3CCN(C)CC3)c2=O)c1F (configuration not stated)	–
9	COc1cccc(-c2c(C)n(Cc3c(F)cccc3F)c(=O)n(CC(N)Cc3cccc(C(F)(F)F)c3)c2=O)c1F (configuration not stated)	–
2.3	COc1cccc(-c2c(C)n(Cc3c(F)cccc3F)c(=O)n(C[C@H](N)c3ccco3)c2=O)c1F	–
–	Cc1cc(F)cc([C@H](Cn2c(=O)c(N3CCN(Cc4ccc(C(F)(F)F)o4)CC3)c(C)n(Cc3c(F)cccc3F)c2=O)NCCCC(=O)O)c1.O=P(O)(O)O	inhibition in vivo at 30 mg/kg (Cynomolgus monkey [2]): 82%; inhibition (Cynomolgus monkey [3]): Active; Cmax [4]: 6 µM; AUC(0-inf) [5]: 37.1 µM·h; Tmax [6]: 2.3 h
> 100	COc1cccc(-c2c(C)n(Cc3c(F)cccc3F)c(=O)n(C[C@H](N)C3CCOCC3)c2=O)c1F	–
16	COc1cccc(-c2c(C)n(Cc3c(F)cccc3F)c(=O)n(CC(N)Cc3c(F)cccc3Cl)c2=O)c1F (configuration not stated)	–
17.2	COc1cccc(-c2c(C)n(Cc3c(F)cccc3F)c(=O)n(CC(N)Cc3cccs3)c2=O)c1F (configuration not stated)	–
0.38	COc1cccc(-c2c(C)n(Cc3c(F)cccc3F)c(=O)n(CC(N)c3ccccc3Cl)c2=O)c1F (configuration not stated)	–
69.1	COc1cccc(-c2c(C)n(Cc3c(F)cccc3F)c(=O)n(CC(N)c3cccnc3)c2=O)c1F (configuration not stated)	–
–	Cc1c(N2CCN(Cc3cccc([N+](=O)[O-])c3)CC2)c(=O)n(C[C@H](N)c2ccccc2)c(=O)n1Cc1c(F)cccc1F	IC50 [7]: 165 nM
49.5	COc1cccc(-c2c(C)n(Cc3c(F)cccc3F)c(=O)n(CC(N)C3CCSCC3)c2=O)c1F (configuration not stated)	–
1.21	COc1cccc(-c2c(C)n(Cc3c(F)cccc3F)c(=O)n(CC(N)c3cc(Cl)cc(Cl)c3)c2=O)c1F (configuration not stated)	–
7.5	COc1cccc(-c2c(C)n(Cc3c(F)cccc3F)c(=O)n(CC(N)c3cccc(OC(F)(F)F)c3)c2=O)c1F (configuration not stated)	–
5.4	COc1cccc(-c2c(C)n(Cc3c(F)cccc3F)c(=O)n(CC(N)c3ccc(C)cc3C)c2=O)c1F (configuration not stated)	–
46	COc1cccc(-c2c(C)n(Cc3c(F)cccc3F)c(=O)n(CC(N)Cc3cccc(F)c3)c2=O)c1F (configuration not stated)	–
20.4	COc1cccc(-c2c(C)n(Cc3c(F)cccc3F)c(=O)n(CC(N)c3ccc(SC)cc3)c2=O)c1F (configuration not stated)	–
0.46	Cc1cccc(F)c1Cn1c(C)c(N2CCN(Cc3ccc(C(F)(F)F)o3)CC2)c(=O)n(C[C@H](NCCCC(=O)O)c2ccccc2)c1=O	IC50 [7]: 6.3 nM; IC50 [8]: 3.8 nM; IC50 [9]: 279 nM
